The text below walks through data of publication PMC4769088, “Antifungal Activity and Action Mechanism of Histatin 5-Halocidin Hybrid Peptides against Candida ssp” (PLoS ONE, 2016).

Read-outs that look alike come from different tables or passages of the source. Where a SMILES comes first, the peptide text is derived from it. Bridges are numbered along the chain shown (N, C = ends). Roman numbers before positions name the chains, in order. Where no end group is shown, it is not given here.

Assay [1] concerns C.albicans SC5413. Type of assay: cell-based, Candida albicans. The settings on record: SC5413, 24 h. On the procedure: (§1) To determine the candidacidal activity of the peptides, we used Candida strains obtained from the Culture collection of antimicrobial resistant microbes at Seoul Women’s University in Korea. These included three Candida albicans (CCARM 14020, 14021, 14022), Candida guillermondi and Candida tropicalis. In addition, Candida albicans SC5413 was kindly provided by Dr Jeong-Yoon Kim at the Department of Microbiology & Molecular Biology, Chungnam University, Korea. Yeast were cultured overnight at 30°C in 10 ml of yeast extract-peptone-dextrose (YPD) broth (Qbiogene), then diluted in 10 ml of YPD broth to OD600 = 0.2 and grown for an additional 4 h with shaking at 30°C until OD600 = 0.8 in order to obtain mid-log phase cultures. The peptides (Hst 5, P113, HHP1, HHP2, PH1, PH2, di-PH1, di-PH2, WP1, di-WP2, di-15Hc and di-18Hc) in this study were synthesized by using standard solid-phase synthesis protocols and were purified by reversed-phase high-performance liquid chromatography at Anygen Inc. (Korea). FITC-labeled peptides (F-Hst5, F-P113, F-HHP1, F-di-PH2, F-di-WP2 and F-di-18Hc) were also synthesized by 6-aminohexnoic acid linker at Anygen (Korea) for confocal experiments.
(§2) The candidacidal activities of the peptides were tested by using standard microdilution plate assays, radial diffusion assays and broth dilution assay slightly modified from the procedure recommended by the National Committee for Clinical Laboratory Standards. For the candidacidal assays, C. albicans cells were grown in YPD medium and washed twice with 10 mM sodium phosphate buffer (NaPB; Na2HPO4, NaH2PO4, pH 7.4). The cells (1 x 10^6) were then mixed with different concentrations of peptides and incubated at 30°C with constant shaking for 60 min. For energy depletion experiments, cells were pre-incubated with 10 mM NaPB containing 5 mM NaN3 at 30°C for 60 min before the addition of peptides. The cell suspensions were diluted in 10 mM NaPB and aliquots of 500 cells were spread onto YPD agar plates then incubated for 24 h at 30°C to visualize the surviving colonies. Cell survival was expressed as a percentage of that for the control, and the loss of viability was calculated as [1 x (number of colonies from peptide-treated cells/number of colonies from control cells)] x 100. Candidacidal assays were performed in triplicate. For the radial diffusion assay, C. albicans cells were grown in YPD medium overnight and washed twice with 10 mM NaPB. Washed yeast-phase C. albicans cells (1 x 10^6 CFU) were trapped in thin underlay gels containing 9 mM sodium phosphate, 1 mM sodium citrate buffer, 1% (wt/vol) agarose (A6013; Sigma), and 0.3 mg of Sabouraud dextrose broth (Difco)/ml. After incubation at 37°C for 3 h, a 10 ml overlay gel of 1% agarose and 6% Sabouraud dextrose broth was poured on the underlay gel and then the plates were incubated overnight at 37°C. The clear-zone diameters were measured to the nearest 0.1 mm and graphed against the peptide concentration. Zone diameters were expressed in units (0.1 mm = 1 unit). For the broth dilution assay, the Candida strains were cultured in LYM broth for 18 h at 30°C. The numbers of yeasts were counted using a hemocytometer. Stock peptide solutions were prepared to a concentration of 320 μg/ml in distilled water, and were then serially diluted twofold, to 5 μg/ml. 100 μl aliquots of the diluted culture media containing candida cells (1 x 10^3) were dispensed into the wells of 96-well polypropylene microtiter plates (Costar 3879, Corning, NY), to which peptide solution (11 μl) was then added. In the experiments conducted to assess the candidacidal activity of peptides in the presence of salt, we used LYM supplemented with 150 mM NaCl for the culture medium, which was mixed with the peptide solution. The antifungal activities were evaluated after 24 h of incubation at 30°C by the observation of visible turbidity the wells. […]

For assay [2], the system named is C.albicans CCARM 14021. Type of assay: cell-based, Candida albicans. On the procedure:
as §1, §2

In assay [3] the test system is C.albicans CCARM 14020. Type of assay: cell-based, Candida albicans. The settings on record: CCARM 14020, 24 h. On the procedure: as §1, §2
In assay [4] the test system is C.albicans CCARM 14022. Type of assay: cell-based, Candida albicans. How it is done:
as §1, §2

For assay [5], the system named is all tested Candida strains. Format: cell-based. The settings on record: 4 h. On the procedure: as §1, §2
Assay [6] deals with C. guilliermondi CCARM 14018. Type of assay: cell-based. The following applies: CCARM 14018, 24 h. On the procedure:
as §1, §2

Where [7] appears, read: broth dilution, LYM broth, 24 h at 30°C, interval a–b.

For the molecule `CC(C)C[C@H](NC(=O)CNC(=O)[C@H](Cc1c[nH]cn1)NC(=O)[C@H](Cc1c[nH]cn1)NC(=O)[C@H](CCCNC(=N)N)NC(=O)[C@H](CCCCN)NC(=O)[C@H](C)N)C(=O)N[C@@H](CC(N)=O)C(=O)N[C@@H](CSSC[C@H](NC(=O)[C@H](CC(N)=O)NC(=O)[C@H](CC(C)C)NC(=O)CNC(=O)[C@H](Cc1c[nH]cn1)NC(=O)[C@H](Cc1c[nH]cn1)NC(=O)[C@H](CCCNC(=N)N)NC(=O)[C@H](CCCCN)NC(=O)[C@H](C)N)C(=O)N[C@@H](C)C(=O)N[C@@H](CCCCN)C(=O)NCC(=O)N[C@H](C(=O)N[C@@H](CC(C)C)C(=O)N[C@@H](C)C(N)=O)C(C)C)C(=O)N[C@@H](C)C(=O)N[C@@H](CCCCN)C(=O)NCC(=O)N[C@H](C(=O)N[C@@H](CC(C)C)C(=O)N[C@@H](C)C(N)=O)C(C)C` [di-PH1] (I: H-AKRHHGLNCAKGVLA-NH2 / II: H-AKRHHGLNCAKGVLA-NH2; disulfide I:9-II:9 (inferred); N-terminus assumed), the MICs is 16 to 32 µg/mL in assay [1]; 4 to 8 µg/mL in assay [2] (CCARM 14021, 24 h); 16 to 32 µg/mL in assay [3]; 4 to 8 µg/mL in assay [4] (CCARM 14022, 24 h).

Regarding AKRHHGLNCAKFH-NH2 [PH2], the MICs in assay [1] lay within 1 to 2 µg/mL; in assay [2] (CCARM 14021, 24 h), 1 to 2 µg/mL; in assay [3] it was 1 to 2 µg/mL; in assay [4] (CCARM 14022, 24 h) it was 8 to 16 µg/mL.

For AKRHHGLNCAKGVLA-NH2 [PH1], the MICs lay within 16 to 32 µg/mL in assay [1]; 8 to 16 µg/mL in assay [2] (CCARM 14021, 24 h); 16 to 32 µg/mL in assay [3]; 8 to 16 µg/mL in assay [4] (CCARM 14022, 24 h).

As for ALLHHGYKRKFH-NH2 [HHP2], the MICs in assay [1] was 16 to 32 µg/mL; in assay [2] (setting [7]), 32< μg/ml; in assay [3], 8 to 16 µg/mL; in assay [4] (setting [7]), 32< μg/ml.

In the case of WLNAKRHHGYKRKFH-NH2 [WP1], the MICs in assay [1] was 4 to 8 µg/mL; in assay [2] (CCARM 14021, 24 h), 8 to 16 µg/mL; in assay [3], 4 to 8 µg/mL; in assay [4] (setting [7]), 32< μg/ml.

As to WLNALLHHGYKRKFH-NH2 [HHP1], the MICs lay in the range of 2 to 4 µg/mL in assay [1]; 2 to 4 µg/mL in assay [2] (CCARM 14021, 24 h); 2 to 4 µg/mL in assay [3]; 4 to 8 µg/mL in assay [4] (CCARM 14022, 24 h); 1 to 2 µg/mL in assay [6]. Further, the MIC values in assay [5] lay in the range of 2 to 4 µg/mL.
